The subject of the test is immature embryos of bread wheat (variety: Fielder). Put plainly: GUS gene expression in wheat immature embryos; effect of adding plant hormone to coculture medium (Example 9). Particulars: 5 days resting culture; for degree of GUS gene expression relative to coculture medium not containing plant hormones (FIG. 5): 0.5 μM in coculture medium, 10 immature embryos per group; for degree of GUS gene expression relative to coculture medium not containing plant hormones (FIG. 6) / degree of GUS gene expression relative to coculture medium not containing plant hormones (FIG. 4): 5 μM in coculture medium; for degree of GUS gene expression relative to coculture medium not containing plant hormones (FIG. 6): 18 or 19 immature embryos per group; for degree of GUS gene expression relative to coculture medium not containing plant hormones (FIG. 4): 16 or 17 immature embryos per group. The class given is cell-based, bread wheat (Triticum aestivum). The protocol:
Bread wheat (variety: Fielder) was cultivated in a greenhouse equipped with an air conditioner, and the immature embryos (size: 1.5 to 3.0 mm) of the bread wheat were aseptically collected on the 14th day after flowering and were washed once with an Inf liquid medium. Pretreatment (centrifugation at 15000 rpm for 10 min) was performed to enhance the efficiency of gene introduction in an Inf liquid medium. Agrobacterium strain EHA101 (pIG121Hm) was suspended at about 1.0×10^9 cfu/mL in an Inf liquid medium containing 100 μM acetosyringone to prepare an inoculation source. The inoculation source was added to the immature embryos, and the mixture was stirred for 30 sec, followed by leaving to stand at room temperature for 5 min. The immature embryos inoculated with Agrobacterium were placed onto a Co-Cul coculture medium containing 100 μM acetosyringone, 5 μM AgNO3, and 5 μM CuSO4 and also containing 5 μM kinetin or 4PU; 0.5 μM 2,4-D, dicamba, or picloram; or 5 μM 2,4-D, dicamba, or picloram in such a manner that the scutellum faced upward, and were cocultured at 23° C. in the dark. As a control, a Co-Cul coculture medium not containing any plant hormone was used.
On the 2nd day from the beginning of the coculture, the radicles, germs, and embryonic axes were excised using a scalpel and tweezers. The immature embryos were placed onto a resting medium (the composition is the same as that described in Example 1), followed by cultivation at 25° C. in the dark for 5 days. Subsequently, 10 to 19 immature embryos were collected from each group and were immersed in a 0.1 M phosphate buffer (pH 6.8) containing 0.1% Triton X-100 at 37° C. for 1 hr. The phosphate buffer was removed, and a phosphate buffer containing 1.0 mM 5-bromo-4-chloro-3-indolyl-β-D-glucuronic acid (X-gluc) and 20% methanol was added thereto. After treatment at 37° C. for 24 hr, the immature embryos in each group were evaluated for expression of the GUS gene in six grades: 4 (expressed in 75% or more of scutellum), 3 (expressed in 50% to 74% of scutellum), 2 (expressed in 25% to 49% of scutellum), 1 (expressed in 5% to 24% of scutellum), 0.5 (expressed in 1% to 4% of scutellum), and 0 (no expression).
A part of the immature embryos in each test group was harvested on the 5th day of the resting culture, and the GUS gene was expressed. The vertical axis in each of FIGS. 4, 5, and 6 represents the average of GUS gene expression by each immature embryo evaluated in six grades: 4 (expressed in 75% or more of scutellum), 3 (expressed in 50% to 74% of scutellum), 2 (expressed in 25% to 49% of scutellum), 1 (expressed in 5% to 24% of scutellum), 0.5 (expressed in 1% to 4% of scutellum), and 0 (no expression), that is, efficiency of gene introduction shown by expression of the GUS gene.

Turning to `O=C(O)COc1ccc(Cl)cc1Cl` [2,4-D, 2,4-dichlorophenoxyacetic acid], the “degree of GUS gene expression relative to coculture medium not containing plant hormones (FIG. 5)” value was “equivalent to or slightly lower” and the “degree of GUS gene expression relative to coculture medium not containing plant hormones (FIG. 6)” value is listed as “slightly lower”.
Consider `O=C(Nc1ccccc1)Nc1ccncc1` [4PU], for which the “degree of GUS gene expression relative to coculture medium not containing plant hormones (FIG. 4)” value is listed as “slightly lower”.
In the case of `COc1c(Cl)ccc(Cl)c1C(=O)O` [dicamba], the “degree of GUS gene expression relative to coculture medium not containing plant hormones (FIG. 5)” value was “equivalent to or slightly lower” and the “degree of GUS gene expression relative to coculture medium not containing plant hormones (FIG. 6)” value is “slightly lower”.
Consider `c1coc(CNc2ncnc3[nH]cnc23)c1` [kinetin], for which the “degree of GUS gene expression relative to coculture medium not containing plant hormones (FIG. 4)” value is “slightly lower”.
As to `Nc1c(Cl)c(Cl)nc(C(=O)O)c1Cl` [picloram], the “degree of GUS gene expression relative to coculture medium not containing plant hormones (FIG. 5)” value is reported as “equivalent to or slightly lower” and the “degree of GUS gene expression relative to coculture medium not containing plant hormones (FIG. 6)” value is given as “slightly lower”.
